Measurements as given in ChEMBL document CHEMBL5247584, “Design, synthesis and evaluation of fused hybrids with acetylcholinesterase inhibiting and Nrf2 activating functions for Alzheimer's disease” (Eur J Med Chem, 2022).
Active and inactive are the calls of the source. The calls are words filed in the database; no cut-off is given here.

Columns and labels:
[1] = biological target: Acetylcholinesterase (Electrophorus electricus, UniProt O42275); experiment: Inhibition of electric eel AChE using ATC and BTC iodide as substrate preincubated for 5 mins followed by substrate addition and measured after 2 mins by DTNB reagent based assay
Chain of Acetylcholinesterase (Electrophorus electricus, UniProt O42275) (O42275 whole entry): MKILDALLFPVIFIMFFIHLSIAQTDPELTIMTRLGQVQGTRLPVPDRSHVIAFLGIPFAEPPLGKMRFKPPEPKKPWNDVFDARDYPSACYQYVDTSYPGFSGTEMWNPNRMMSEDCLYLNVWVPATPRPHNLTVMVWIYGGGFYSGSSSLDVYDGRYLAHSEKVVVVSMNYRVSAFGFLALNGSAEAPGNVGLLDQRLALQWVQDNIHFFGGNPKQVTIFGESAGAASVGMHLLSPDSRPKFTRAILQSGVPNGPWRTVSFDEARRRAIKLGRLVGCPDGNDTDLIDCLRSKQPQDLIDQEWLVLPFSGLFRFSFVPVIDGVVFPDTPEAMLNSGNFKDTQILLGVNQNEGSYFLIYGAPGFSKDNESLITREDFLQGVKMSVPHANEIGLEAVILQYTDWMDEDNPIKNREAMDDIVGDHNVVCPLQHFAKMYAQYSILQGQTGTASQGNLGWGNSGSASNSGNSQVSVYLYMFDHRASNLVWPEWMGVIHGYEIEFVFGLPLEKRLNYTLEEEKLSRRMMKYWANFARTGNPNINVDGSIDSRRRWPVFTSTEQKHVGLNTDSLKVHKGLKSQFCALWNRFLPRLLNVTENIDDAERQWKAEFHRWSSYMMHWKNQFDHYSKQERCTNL

[2] = biological target: Cholinesterase (Equus caballus, UniProt P81908); experiment: Inhibition of equine serum BuChE using ATC and BTC iodide as substrate preincubated for 5 mins followed by substrate addition and measured after 2 mins by DTNB reagent based assay
Chain of Cholinesterase (P81908 whole entry): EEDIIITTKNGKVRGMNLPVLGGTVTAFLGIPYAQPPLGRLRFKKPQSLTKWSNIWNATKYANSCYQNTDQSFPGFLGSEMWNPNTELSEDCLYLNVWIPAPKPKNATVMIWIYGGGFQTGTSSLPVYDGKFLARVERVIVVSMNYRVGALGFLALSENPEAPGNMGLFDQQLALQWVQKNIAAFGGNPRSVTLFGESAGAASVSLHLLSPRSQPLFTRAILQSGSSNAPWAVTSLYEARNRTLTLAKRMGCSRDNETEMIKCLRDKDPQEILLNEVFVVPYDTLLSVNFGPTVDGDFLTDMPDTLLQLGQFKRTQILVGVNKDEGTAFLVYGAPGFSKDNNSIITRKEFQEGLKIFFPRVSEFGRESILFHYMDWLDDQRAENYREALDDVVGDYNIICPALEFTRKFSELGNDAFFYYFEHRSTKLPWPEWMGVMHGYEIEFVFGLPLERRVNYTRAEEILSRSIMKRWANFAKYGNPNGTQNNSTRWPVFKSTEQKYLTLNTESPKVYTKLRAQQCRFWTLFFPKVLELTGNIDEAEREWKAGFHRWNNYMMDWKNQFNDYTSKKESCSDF

[3] = system: HepG2-ARE-C8; experiment: Cytotoxicity against human HepG2-ARE-C8 cells assessed as reduction in cell viability at 5 and 20 uM measured for 24 hrs by MTT assay; type: functional, cell-based
[4] = biological target: Acetylcholinesterase (Homo sapiens, UniProt P22303); experiment: Inhibition of human AChE using ATC and BTC iodide as substrate preincubated for 5 mins followed by substrate addition and measured after 2 mins by DTNB reagent based assay
[5] = system: Mus musculus; experiment: Antialzheimer activity against Abeta1-42-induced cognitive impairment ICR mouse model assessed as increase in escape latency at 10 mg/kg, IG administered for 3 to 14 days and measured after 9 to 14 days in presence of donepezil by Morris water maze test; type: functional, organism-based; conditions: time 9-14 day
[6] = system: Mus musculus; experiment: Antialzheimer activity against Abeta1-42-induced cognitive impairment ICR mouse model assessed as increase in distance to reach target at 10 mg/kg, IG administered for 3 to 14 days and measured after 9 to 14 days in presence of donepezil by Morris water maze test; type: functional, organism-based; conditions: time 9-14 day
[7] = system: Mus musculus; experiment: Antialzheimer activity against Abeta1-42-induced cognitive impairment ICR mouse model assessed as increase in arrival time at 10 mg/kg, IG administered for 3 to 14 days and measured after 9 to 14 days in presence of donepezil by Morris water maze test; type: functional, organism-based; conditions: time 9-14 day
[8] = system: Mus musculus; experiment: Antialzheimer activity against Abeta1-42-induced cognitive impairment ICR mouse model assessed as confuse escape tracks at 10 mg/kg, IG administered for 3 to 14 days and measured after 9 to 14 days in presence of donepezil by Morris water maze test; type: functional, organism-based; conditions: time 9-14 day
[9] = system: Mus musculus; experiment: Cognitive enhancing effect in amyloid beta (1 to 42)-induced ICR mouse model assessed as increase in ACh level at 20 mg/kg […] in presence of donepezil by ELISA; type: functional, organism-based
[10] = system: HepG2-ARE-C8; experiment: Activation of Nrf2-ARE pathway in human HepG2-ARE-C8 cells at 20 uM measured for 24 hrs by ARE-luciferase assay; type: cell-based; conditions: filed as activator
[11] = compound: Cc1ccc(-c2noc(-c3cccc(OCC4CCN(Cc5cccc(F)c5)CC4)c3)n2)cn1; experiment: Non-competitive inhibition of human AChE assessed as decrease in substrate Vmax with constant Km by Lineweaver-Burk plot analysis

Row | Molecule | IC50 [1] [µM] | IC50 [2] [µM] | Activity [3] | other results
1 | Cc1ccc(-c2noc(-c3cccc(OCC4CCN(Cc5cccc(Cl)c5)CC4)c3)n2)cn1 | 2.29 | > 100 | inactive | 
2 | Cc1ccc(-c2noc(-c3cccc(OCC4CCCN(Cc5ccc(F)cc5)C4)c3)n2)cn1 (configuration not stated) | > 100 | 4.28 | inactive | 
3 | Cc1ccc(-c2noc(-c3cccc(OCC4CCN(Cc5ccc(Cl)cc5)CC4)c3)n2)cn1 | > 100 | > 100 | inactive | 
4 | Cc1ccc(-c2noc(-c3cccc(OCC4CCN(Cc5ccc(C)c(C)c5)CC4)c3)n2)cn1 | 5.64 | > 100 | inactive | 
5 | Cc1ccc(-c2noc(-c3cccc(OCC4CCN(Cc5ccc(Cl)o5)CC4)c3)n2)cn1 | 2 | > 100 | inactive | 
6 | Cc1ccc(CN2CCCC(COc3cccc(-c4nc(-c5ccc(C)nc5)no4)c3)C2)cc1 (configuration not stated) | 5.39 | > 100 | inactive | 
7 | Cc1ccc(-c2noc(-c3cccc(OCC4CCN(Cc5cccnc5)CC4)c3)n2)cn1 | 1.28 | 3.93 | inactive | 
8 | Cc1ccc(-c2noc(-c3cccc(OCC4CCN(Cc5ccc(Br)o5)CC4)c3)n2)cn1 | 3.18 | > 100 | inactive | 
9 | Cc1ccc(-c2noc(-c3cccc(OCC4CCN(Cc5ccccn5)CC4)c3)n2)cn1 | 1.92 | 5.03 | inactive | 
10 | Cc1ccc(-c2noc(-c3cccc(OCC4CCN(Cc5ccco5)CC4)c3)n2)cn1 | 2.53 | > 100 | inactive | 
11 | Cc1ccc(-c2noc(-c3cccc(OCC4CCN(Cc5ccccc5F)CC4)c3)n2)cn1 | 0.1 | 15.5 | inactive | IC50 [4]: 0.29 µM
12 | Cc1ccc(-c2noc(-c3cccc(OCC4CCCN(Cc5ccccc5F)C4)c3)n2)cn1 (configuration not stated) | 8.14 | 17.6 | inactive | 
13 | Cc1ccc(-c2noc(-c3ccc(F)c(F)c3)n2)cn1 |  |  |  | Activity [5]: Active; Activity [6]: Active; Activity [7]: Active; Activity [8]: Active; Activity [9]: Active
14 | Cc1ccc(-c2noc(-c3cccc(OCC4CCN(Cc5ccc(Br)cc5)CC4)c3)n2)cn1 | > 100 | > 100 | inactive | 
15 | Cc1ccc(-c2noc(-c3cccc(OCC4CCN(C(=O)c5ccc(F)cc5)CC4)c3)n2)cn1 | > 100 | > 100 | inactive | 
16 | Cc1ccc(CN2CCC(COc3cccc(-c4nc(-c5ccc(C)nc5)no4)c3)CC2)cc1 | > 100 | 6.34 | inactive | 
17 | Cc1ccc(-c2noc(-c3cccc(OCC4CCN(C(=O)c5ccccc5)CC4)c3)n2)cn1 | 59.4 | > 100 | inactive | 
18 | Cc1ccc(-c2noc(-c3cccc(OCC4CCN(Cc5ccncc5)CC4)c3)n2)cn1 | 16.8 | > 100 | inactive | 
19 | Cc1ccc(-c2noc(-c3cccc(OCC4CCCN(C(=O)c5ccc(F)cc5)C4)c3)n2)cn1 (configuration not stated) | 4.37 | 5.78 | inactive | 
20 | Cc1ccc(-c2noc(-c3cccc(OCC4CCN(Cc5ccc(C#N)cc5)CC4)c3)n2)cn1 | 71.4 | > 100 | inactive | 
21 | COc1ccc(CN2CCC(COc3cccc(-c4nc(-c5ccc(C)nc5)no4)c3)CC2)cc1 | > 100 | > 100 | inactive | 
22 | Cc1ccc(-c2noc(-c3cccc(OCC4CCCN(C(=O)c5ccccc5)C4)c3)n2)cn1 (configuration not stated) | 15.9 | 13.8 | inactive | Activity [10]: Active
23 | Cc1ccc(-c2noc(-c3cccc(OCC4CCN(Cc5ccc(F)c(F)c5)CC4)c3)n2)cn1 | 13.9 | 1.66 | inactive | 
24 | Cc1ccc(-c2noc(-c3cccc(OCC4CCN(Cc5ccccc5Cl)CC4)c3)n2)cn1 | 0.55 | > 100 | inactive | IC50 [4]: 0.57 µM
25 | Cc1ccc(-c2noc(-c3cccc(OCC4CCN(Cc5ccc(C(F)(F)F)cc5)CC4)c3)n2)cn1 | > 100 | > 100 | inactive | Activity [10]: Active
26 | Cc1ccc(-c2noc(-c3cccc(OCC4CCN(Cc5ccc(C(C)(C)C)cc5)CC4)c3)n2)cn1 | > 100 | > 100 | inactive | Activity [10]: Active
27 | Cc1ccc(-c2noc(-c3cccc(OCC4CCN(Cc5ccc(F)cc5)CC4)c3)n2)cn1 | 0.56 | 1.36 | inactive | IC50 [4]: 2.99 µM
28 | Cc1ccc(-c2noc(-c3cccc(OCC4CCCN(Cc5ccccc5)C4)c3)n2)cn1 (configuration not stated) | 6.46 | 2.78 | inactive | 
29 | Cc1ccc(-c2noc(-c3cccc(OCC4CCN(Cc5ccccc5)CC4)c3)n2)cn1 | 0.29 | 5.05 | inactive | IC50 [4]: 0.74 µM
30 | Acetylcholinesterase (Homo sapiens), P22303 (protein) MRPPQCLLHTPSLASPLLLLLLWLLGGGVGAEGREDAELLVTVRGGRLRGIRLKTPGGPVSAFLGIPFAEPPMGPRRFLPPEPKQPWSGVVDATTFQSVCYQYVDTLYPGFEGTEMWNPNRELSEDCLYLNVWTPYPRPTSPTPVLVWIYGGGFYSGASSLDVYDGRFLVQAERTVLVSMNYRVGAFGFLALPGSREAPGNVGLLDQRLALQWVQENVAAFGGDPTSVTLFGESAGAASVGMHLLSPPSRGLFHRAVLQSGAPNGPWATVGMGEARRRATQLAHLVGCPPGGTGGNDTELVACLRTRPAQVLVNHEWHVLPQESVFRFSFVPVVDGDFLSDTPEALINAGDFHGLQVLVGVVKDEGSYFLVYGAPGFSKDNESLISRAEFLAGVRVGVPQVSDLAAEAVVLHYTDWLHPEDPARLREALSDVVGDHNVVCPVAQLAGRLAAQGARVYAYVFEHRASTLSWPLWMGVPHGYEIEFIFGIPLDPSRNYTAEEKIFAQRLMRYWANFARTGDPNEPRDPKAPQWPPYTAGAQQYVSLDLRPLEVRRGLRAQACAFWNRFLPKLLSATDTLDEAERQWKAEFHRWSSYMVHWKNQFDHYSKQDRCSDL |  |  |  | Km [11]: 0.233 µM
